Measurements from ChEMBL document CHEMBL3632512, “Inhibition of 3-deoxy-D-arabino-heptulosonate 7-phosphate synthase from Mycobacterium tuberculosis: in silico screening and in vitro validation” (Eur J Med Chem, 2015).
Calls of active or inactive are those of the source. The calls are words filed in the database; no cut-off is given here.

Assays:
[1] = tested on: Mycobacterium tuberculosis; assay: Inhibition of Mycobacterium tuberculosis MTCC 300 DAH7PS expressed in Escherichia coli BL21 (DE3) using 25 to 125 uM PEP/100 uM E4P as substrate up to 50 nM by spectrophotometric analysis
[2] = tested on: Mycobacterium tuberculosis; assay: Inhibition of Mycobacterium tuberculosis MTCC 300 DAH7PS expressed in Escherichia coli BL21 (DE3) using 25 to 125 uM PEP/100 uM E4P as substrate at 10 uM by spectrophotometric analysis relative to control
[3] = (§1) Inhibition of Mycobacterium tuberculosis MTCC 300 DAH7PS expressed in Escherichia coli BL21 (DE3) using 25 to 125 uM PEP/100 uM E4P as substrate by spectrophotometric analysis
[4] = tested on: Mycobacterium tuberculosis; assay: as §1

Row | Compound | inhibition [1] | inhibition [2] [%] | IC50 [3] [µM] | inhibition [4]
1 | Cc1c(C)c2c(c(C)c1O)CC[C@@](C)(CCC[C@H](C)CCC[C@H](C)CCCC(C)C)O2 [ALPHA-TOCOPHEROL] | inactive | 21 | 21 | Dose-dependent effect
2 | O=C(/C=C/c1ccc(O)c(O)c1)O[C@@H]1C[C@](O)(C(=O)O)C[C@@H](O)[C@H]1O [CHLOROGENIC ACID] | inactive | 9 | 291 | –
3 | C[C@]1(O)CC[C@@H]2C(C(=O)O)=CO[C@@H](O[C@@H]3O[C@H](CO)[C@@H](O)[C@H](O)[C@H]3OC(=O)c3ccc(O)cc3)[C@@H]21 [NEGUNDOSIDE] | inactive | 8 | 159 | –
4 | O=Cc1cccnc1 [NICOTINALDEHYDE] | inactive | 16 | 54 | Dose-dependent effect
5 | C[C@@H]1O[C@@H](OC[C@H]2O[C@@H](Oc3c(-c4ccc(O)c(O)c4)oc4cc(O)cc(O)c4c3=O)[C@H](O)[C@@H](O)[C@@H]2O)[C@H](O)[C@H](O)[C@H]1O [RUTIN] | inactive | 17 | 42 | Dose-dependent effect
6 | N[C@@H](Cc1ccc(O)cc1)C(=O)O [TYROSINE] | – | 41 | 13 | –
